Values quoted from earlier work as cited in patent US4256737A, “Long acting depot injectable formulations for LH-RH analogues” (Syntex (U.S.A.) Inc., priority 1979, dated 1981).

Conditions: background statement

(pyro)Glu-His-Trp-Ser-Tyr-Gly-Leu-Arg-Pro-Gly-NH2 [natural LH-RH]
biological halflife: 1-2 hours
